Values of other authors as cited in US20260092079A1, “MANUFACTURE METHOD FOR AQUEOUS FORMULATION OF MANGANESE-CONTAINING COORDINATION COMPLEX, FORMULATION, AND METHOD OF TREATMENT” (GALERA LABS, LLC, priority 2019, published 2026).

Assays:
[1] = system: VEGFr inhibitor-induced pulmonary disease; details: rat model
oral mucositis = details: head-and-neck cancer patients undergoing chemoradiation therapy
[2] = system: experimental model of colitis; details: rats
[3] = system: radiation-induced oral mucositis; details: hamster, acute radiation-induced oral mucositis
[4] = system: lethal total body irradiation; details: adult mice
inflammation = details: rat model
[5] = system: collagen-induced arthritis; details: rat

| SMILES | VEGFr inhibitor-induced pulmonary disease [1] | Oral mucositis (oral mucositis) | Injury to the colon [2] | Radiation damage [3] | Radiation damage [4] | Inflammation (inflammation) | Joint disease [5] |
| --- | --- | --- | --- | --- | --- | --- | --- |
| [Cl][Mn][Cl].c1cc2nc(c1)CN[C@H]1CCCC[C@@H]1NCCN[C@H]1CCCC[C@@H]1NC2 [GC4419] | attenuate VEGFr inhibitor-induced pulmonary disease | reduce oral mucositis | – | – | – | – | – |
| [Cl-].[Cl-].[Mn+2].c1cc2nc(c1)CN[C@@H]1CCCC[C@H]1NCCN[C@@H]1CCCC[C@H]1NC2 [GC4403] | – | – | very significantly reduce the injury to the colon | attenuate the radiation damage | attenuate the radiation damage | inhibit inflammation | prevent joint disease |
